Test results as given in patent publication US5130323A, “Pyrrolidine derivatives” (Fujisawa Pharmaceutical Co., Ltd., priority 1988, dated 1992).
pIC50: −log10 of the molar value.

Tests used:
[1] = tested on: human platelet aggregation induced by U46619; test: Inhibition of human platelet aggregation induced by U46619; assay type: cell-based; details: human platelet rich plasma, U46619 final 1.0 μM, 37° C.; read-out: IC50 (Inhibition concentration of platelet aggregation by 50%)
Protocol: In the following test, the used 9,11-methanoepoxy PGH2 (U46619) is characterized pharmacologically as TXA2 mimetic agent and widely used for evaluating TXA2 antagonism of test compounds (for example, vide The Journal of Pharmacology and Experimental Therapeutics Vol. 234, pp 435-441).
Human blood was obtained from healthy male volunteers and mixed with 3.8% (w/v) sodium citrate in a ratio of 9:1. Platelet rich plasma (PRP) was prepared from the citrated blood by centrifugation at 150×g for 15 min. Platelet aggregation in PRP was studied photometrically using an aggregometer (NKK HAEMATRACER 1 . To the 225 μl of PRP, 25 μl of test compound solution was added, and then stirred at 1000 rpm for 2 min at 37° C. To the solution, 5 μl of U46619 (final 1.0 μM) was added as an aggregating inducer. IC50 (Inhibition concentration of platelet aggregation by 50% were determined graphically.

[2] = target: T1, TXA2 synthetase (Homo sapiens, UniProt P24557); test: Inhibition of TXA2 synthetase; assay type: biochemical; details: aspirin treated human platelet microsome, PGH2 as substrate, 25° C., TXB2 measured by radioimmunoassay; read-out: IC50 (Inhibition concentration of TXB2 generation by 50%)
T1 construct: human platelet microsome; purchased Ran Biochem, Israel; host or cells: human platelet microsomes, aspirin treated (APM)
T1 sequence (P24557 1-533): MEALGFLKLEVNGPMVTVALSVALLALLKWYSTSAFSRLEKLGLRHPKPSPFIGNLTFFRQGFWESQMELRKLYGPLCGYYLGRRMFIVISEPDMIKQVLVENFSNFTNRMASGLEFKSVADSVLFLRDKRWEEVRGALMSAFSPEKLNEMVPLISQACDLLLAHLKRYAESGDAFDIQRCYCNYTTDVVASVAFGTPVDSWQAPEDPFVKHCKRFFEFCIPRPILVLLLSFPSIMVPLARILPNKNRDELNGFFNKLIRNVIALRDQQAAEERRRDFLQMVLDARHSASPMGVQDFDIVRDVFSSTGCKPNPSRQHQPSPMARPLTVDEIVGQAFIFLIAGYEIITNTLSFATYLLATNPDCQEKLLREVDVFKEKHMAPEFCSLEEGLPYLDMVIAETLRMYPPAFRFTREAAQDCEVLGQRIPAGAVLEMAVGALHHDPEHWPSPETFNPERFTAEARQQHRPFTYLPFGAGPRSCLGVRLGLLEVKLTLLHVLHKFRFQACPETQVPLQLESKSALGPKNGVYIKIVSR
Protocol: Aspirin treated human platelet microsome APM, Ran Biochem, Israel) was used as a source of TXA2 synthetase. APM was suspended in 50 mM Tris/100 mM NaCl buffer (pH 7.5). 10 μl of test compound solution was added to 90 μl of APM suspension and incubated at 25° C. for 3 min. And then, 2 μl of PGH2 (10 μg/ml in aceton, Ran Biochem.) was added. After 3-min incubation period, the reaction was terminated by adding 10 μl of FeCl2 solution (25 mM in H2 O), and set aside at room temperature for 15 min and then on ice. The reaction mixture was centrifuged at 10000 rpm for 5 min at 4° C. TXB2 in the supernatant was measured by radioimmunoassay. IC50 (Inhibition concentration of TXB2 generation by 50%) were graphically determined.

O=C(O)CCC/C=C\[C@@H]1C[C@@H](NS(=O)(=O)c2ccc(Cl)cc2)CN1Cc1cccnc1 [test compound (1), (2S,4R)-2-[(Z)-5-Carboxy-1-pentenyl]-4-(4-chlorophenylsulfonylamino)-1-(3-pyridylmethyl)pyrrolidine]
pIC50 [1]: 6.57 | pIC50 [2]: 7.34
